In US8450266B2 (Ipsen Pharma S.A.S., priority 2008, dated 2013):
Where a SMILES comes first, the peptide text is derived from it. [ ]: non-standard residue; d: D form. The star is where a group is joined. Ac6c = NC1(C(=O)O)CCCCC1; X1 = CCCN1C(=O)CC(*)C1=O

Experiments:
[1] = Rat plasma half-life assay (LC-MS); format: in vitro ADME; conditions: incubated at 37° C., read-out: Rat Plasma T½ (converted)
Method: (§1) B. Human and Rat Plasma Half-Life Assay
(§2) 50 μl, was removed at various times, like at 0, 1, 2, 3, 4, 8, 24, 32, 48, 56, 72 hours, mixed with 5 μL formic acid and 150 μL acetonitrile in a microcentrifuge tube, vertexed, and centrifuged for 10 minutes at 10K rpm. The supernatant was transferred to an injection vial and analyzed by LC-MS. The LC-MS system consisted of an API4000 mass spectrometer with an ESI probe. Positive ion mode and full scan detection were used. HPLC separation was carried out on a Luna 3μ C8 (2), 2×30 mm column with a gradient from 90% A to 90% B in 10 minutes at a flow rate of 0.3 ml/min. Buffer A was 1% formic acid in water and buffer B was 1% formic acid acetonitrile.

[2] = Human plasma half-life assay (LC-MS); format: in vitro ADME; conditions: incubated at 37° C., read-out: Human Plasma T½ (converted)
Method: as §1, §2

SMILES	half-life at 0.1 mg/ml [1] [h]	half-life at 0.1 mg/ml [2] [h]	half-life at 0.1 mg/mL [1] [h]	half-life at 0.1 mg/mL [2] [h]
CC[C@H](C)[C@H](NC(=O)[C@H](CO)NC(=O)[C@H](Cc1ccc(O)cc1)NC(=O)[C@H](CC(=O)O)NC(=O)[C@H](CO)NC(=O)C1(NC(C)=O)CCCCC1)C(=O)N[C@@H](C)C(=O)N[C@@H](CCSC)C(=O)N[C@@H](CC(=O)O)C(=O)N[C@@H](CCCCN)C(=O)N[C@H](C(=O)N[C@@H](Cc1c[nH]cn1)C(=O)N[C@@H](CCC(N)=O)C(=O)N[C@@H](CCC(N)=O)C(=O)N[C@@H](CC(=O)O)C(=O)N[C@@H](Cc1ccccc1)C(=O)N[C@H](C(=O)N[C@@H](CC(N)=O)C(=O)N[C@@H](Cc1c[nH]c2ccccc12)C(=O)N[C@@H](CC(C)C)C(=O)N[C@@H](CC(C)C)C(=O)N[C@@H](C)C(=O)N[C@@H](CCC(N)=O)C(=O)N[C@@H](CCCCN)C(=O)NCC(=O)N[C@@H](CCCCN)C(=O)N[C@@H](CCCCN)C(=O)N[C@@H](CC(N)=O)C(=O)N[C@@H](CC(=O)O)C(=O)N[C@@H](Cc1c[nH]c2ccccc12)C(=O)N[C@@H](CCCCN)C(=O)N[C@@H](Cc1c[nH]cn1)C(=O)N[C@@H](CC(N)=O)C(=O)N[C@H](C(=O)N[C@H](C(=O)N[C@@H](CCC(N)=O)C(=O)O)[C@@H](C)O)[C@@H](C)CC)C(C)C)[C@@H](C)CC [Example 1, (Ac-A6c^7)hGIP(7-42)-OH]	11	> 72	–	–
CCCN1C(=O)CC(SC[C@H](NC(=O)[C@H](CC(N)=O)NC(=O)[C@H](Cc2c[nH]cn2)NC(=O)[C@H](CCCCN)NC(=O)[C@H](Cc2c[nH]c3ccccc23)NC(=O)[C@H](CC(=O)O)NC(=O)[C@H](CC(N)=O)NC(=O)[C@H](CCCCN)NC(=O)[C@H](CCCCN)NC(=O)CNC(=O)[C@H](CCCCN)NC(=O)[C@H](CCC(N)=O)NC(=O)[C@H](C)NC(=O)[C@H](CC(C)C)NC(=O)[C@H](CC(C)C)NC(=O)[C@H](Cc2c[nH]c3ccccc23)NC(=O)[C@H](CC(N)=O)NC(=O)[C@@H](NC(=O)[C@H](Cc2ccccc2)NC(=O)[C@H](CC(=O)O)NC(=O)[C@H](CCC(N)=O)NC(=O)[C@H](CCC(N)=O)NC(=O)[C@H](Cc2c[nH]cn2)NC(=O)[C@@H](NC(=O)[C@H](CCCCN)NC(=O)[C@H](CC(=O)O)NC(=O)[C@H](CCSC)NC(=O)[C@H](C)NC(=O)[C@@H](NC(=O)[C@H](CO)NC(=O)[C@H](Cc2ccc(O)cc2)NC(=O)[C@H](CC(=O)O)NC(=O)[C@H](CO)NC(=O)C2(NC(C)=O)CCCCC2)[C@@H](C)CC)[C@@H](C)CC)C(C)C)C(=O)N[C@H](C(=O)N[C@@H](CCC(N)=O)C(=O)O)[C@@H](C)O)C1=O (some centres unmarked) [Example 2, [Ac-A6c^7, Cys(Psu)^40]hGIP(7-42)-OH] (Ac-[Ac6c]SDYSIAMDKIHQQDFVNWLLAQKGKKNDWKHNC(X1)TQ-OH)	–	–	7.2	13.7
CCCN1C(=O)CC(SC[C@H](NC(=O)[C@H](Cc2c[nH]cn2)NC(=O)[C@H](CCCCN)NC(=O)[C@H](Cc2c[nH]c3ccccc23)NC(=O)[C@H](CC(=O)O)NC(=O)[C@H](CC(N)=O)NC(=O)[C@H](CCCCN)NC(=O)[C@H](CCCCN)NC(=O)CNC(=O)[C@H](CCCCN)NC(=O)[C@H](CCC(N)=O)NC(=O)[C@H](C)NC(=O)[C@H](CC(C)C)NC(=O)[C@H](CC(C)C)NC(=O)[C@H](Cc2c[nH]c3ccccc23)NC(=O)[C@H](CC(N)=O)NC(=O)[C@@H](NC(=O)[C@H](Cc2ccccc2)NC(=O)[C@H](CC(=O)O)NC(=O)[C@H](CCC(N)=O)NC(=O)[C@H](CCC(N)=O)NC(=O)[C@H](Cc2c[nH]cn2)NC(=O)[C@@H](NC(=O)[C@H](CCCCN)NC(=O)[C@H](CC(=O)O)NC(=O)[C@H](CCSC)NC(=O)[C@H](C)NC(=O)[C@@H](NC(=O)[C@H](CO)NC(=O)[C@H](Cc2ccc(O)cc2)NC(=O)[C@H](CC(=O)O)NC(=O)[C@H](CO)NC(=O)C2(NC(C)=O)CCCCC2)[C@@H](C)CC)[C@@H](C)CC)C(C)C)C(=O)N[C@H](C(=O)N[C@H](C(=O)N[C@@H](CCC(N)=O)C(=O)O)[C@@H](C)O)[C@@H](C)CC)C1=O (some centres unmarked) [Example 3, [Ac-A6c^7, Cys(Psu)^39]hGIP(7-42)-OH] (Ac-[Ac6c]SDYSIAMDKIHQQDFVNWLLAQKGKKNDWKHC(X1)ITQ-OH)	–	–	5.6	16.4
CCCN1C(=O)CC(SC[C@H](NC(=O)[C@H](CCCCN)NC(=O)[C@H](Cc2c[nH]c3ccccc23)NC(=O)[C@H](CC(=O)O)NC(=O)[C@H](CC(N)=O)NC(=O)[C@H](CCCCN)NC(=O)[C@H](CCCCN)NC(=O)CNC(=O)[C@H](CCCCN)NC(=O)[C@H](CCC(N)=O)NC(=O)[C@H](C)NC(=O)[C@H](CC(C)C)NC(=O)[C@H](CC(C)C)NC(=O)[C@H](Cc2c[nH]c3ccccc23)NC(=O)[C@H](CC(N)=O)NC(=O)[C@@H](NC(=O)[C@H](Cc2ccccc2)NC(=O)[C@H](CC(=O)O)NC(=O)[C@H](CCC(N)=O)NC(=O)[C@H](CCC(N)=O)NC(=O)[C@H](Cc2c[nH]cn2)NC(=O)[C@@H](NC(=O)[C@H](CCCCN)NC(=O)[C@H](CC(=O)O)NC(=O)[C@H](CCSC)NC(=O)[C@H](C)NC(=O)[C@@H](NC(=O)[C@H](CO)NC(=O)[C@H](Cc2ccc(O)cc2)NC(=O)[C@H](CC(=O)O)NC(=O)[C@H](CO)NC(=O)C2(NC(C)=O)CCCCC2)[C@@H](C)CC)[C@@H](C)CC)C(C)C)C(=O)N[C@@H](CC(N)=O)C(=O)N[C@H](C(=O)N[C@H](C(=O)N[C@@H](CCC(N)=O)C(=O)O)[C@@H](C)O)[C@@H](C)CC)C1=O (some centres unmarked) [Example 4, [Ac-A6c^7, Cys(Psu)^38]hGIP(7-42)-OH] (Ac-[Ac6c]SDYSIAMDKIHQQDFVNWLLAQKGKKNDWKC(X1)NITQ-OH)	–	–	6	10
CCCN1C(=O)CC(SC[C@H](NC(=O)[C@H](CC(=O)O)NC(=O)[C@H](CC(N)=O)NC(=O)[C@H](CCCCN)NC(=O)[C@H](CCCCN)NC(=O)CNC(=O)[C@H](CCCCN)NC(=O)[C@H](CCC(N)=O)NC(=O)[C@H](C)NC(=O)[C@H](CC(C)C)NC(=O)[C@H](CC(C)C)NC(=O)[C@H](Cc2c[nH]c3ccccc23)NC(=O)[C@H](CC(N)=O)NC(=O)[C@@H](NC(=O)[C@H](Cc2ccccc2)NC(=O)[C@H](CC(=O)O)NC(=O)[C@H](CCC(N)=O)NC(=O)[C@H](CCC(N)=O)NC(=O)[C@H](Cc2c[nH]cn2)NC(=O)[C@@H](NC(=O)[C@H](CCCCN)NC(=O)[C@H](CC(=O)O)NC(=O)[C@H](CCSC)NC(=O)[C@H](C)NC(=O)[C@@H](NC(=O)[C@H](CO)NC(=O)[C@H](Cc2ccc(O)cc2)NC(=O)[C@H](CC(=O)O)NC(=O)[C@H](CO)NC(=O)C2(NC(C)=O)CCCCC2)[C@@H](C)CC)[C@@H](C)CC)C(C)C)C(=O)N[C@@H](CCCCN)C(=O)N[C@@H](Cc2c[nH]cn2)C(=O)N[C@@H](CC(N)=O)C(=O)N[C@H](C(=O)N[C@H](C(=O)N[C@@H](CCC(N)=O)C(=O)O)[C@@H](C)O)[C@@H](C)CC)C1=O (some centres unmarked) [Example 5, [Ac-A6c^7, Cys(Psu)^36]hGIP(7-42)-OH] (Ac-[Ac6c]SDYSIAMDKIHQQDFVNWLLAQKGKKNDC(X1)KHNITQ-OH)	–	–	8.5	7.8
CCCN1C(=O)CC(SC[C@H](NC(=O)[C@H](CC(N)=O)NC(=O)[C@H](CCCCN)NC(=O)[C@H](CCCCN)NC(=O)CNC(=O)[C@H](CCCCN)NC(=O)[C@H](CCC(N)=O)NC(=O)[C@H](C)NC(=O)[C@H](CC(C)C)NC(=O)[C@H](CC(C)C)NC(=O)[C@H](Cc2c[nH]c3ccccc23)NC(=O)[C@H](CC(N)=O)NC(=O)[C@@H](NC(=O)[C@H](Cc2ccccc2)NC(=O)[C@H](CC(=O)O)NC(=O)[C@H](CCC(N)=O)NC(=O)[C@H](CCC(N)=O)NC(=O)[C@H](Cc2c[nH]cn2)NC(=O)[C@@H](NC(=O)[C@H](CCCCN)NC(=O)[C@H](CC(=O)O)NC(=O)[C@H](CCSC)NC(=O)[C@H](C)NC(=O)[C@@H](NC(=O)[C@H](CO)NC(=O)[C@H](Cc2ccc(O)cc2)NC(=O)[C@H](CC(=O)O)NC(=O)[C@H](CO)NC(=O)C2(NC(C)=O)CCCCC2)[C@@H](C)CC)[C@@H](C)CC)C(C)C)C(=O)N[C@@H](Cc2c[nH]c3ccccc23)C(=O)N[C@@H](CCCCN)C(=O)N[C@@H](Cc2c[nH]cn2)C(=O)N[C@@H](CC(N)=O)C(=O)N[C@H](C(=O)N[C@H](C(=O)N[C@@H](CCC(N)=O)C(=O)O)[C@@H](C)O)[C@@H](C)CC)C1=O (some centres unmarked) [Example 6, [Ac-A6c^7, Cys(Psu)^35]hGIP(7-42)-OH] (Ac-[Ac6c]SDYSIAMDKIHQQDFVNWLLAQKGKKNC(X1)WKHNITQ-OH)	–	–	3.2	8
CCCN1C(=O)CC(SC[C@H](NC(=O)[C@H](CCCCN)NC(=O)[C@H](CCCCN)NC(=O)CNC(=O)[C@H](CCCCN)NC(=O)[C@H](CCC(N)=O)NC(=O)[C@H](C)NC(=O)[C@H](CC(C)C)NC(=O)[C@H](CC(C)C)NC(=O)[C@H](Cc2c[nH]c3ccccc23)NC(=O)[C@H](CC(N)=O)NC(=O)[C@@H](NC(=O)[C@H](Cc2ccccc2)NC(=O)[C@H](CC(=O)O)NC(=O)[C@H](CCC(N)=O)NC(=O)[C@H](CCC(N)=O)NC(=O)[C@H](Cc2c[nH]cn2)NC(=O)[C@@H](NC(=O)[C@H](CCCCN)NC(=O)[C@H](CC(=O)O)NC(=O)[C@H](CCSC)NC(=O)[C@H](C)NC(=O)[C@@H](NC(=O)[C@H](CO)NC(=O)[C@H](Cc2ccc(O)cc2)NC(=O)[C@H](CC(=O)O)NC(=O)[C@H](CO)NC(=O)C2(NC(C)=O)CCCCC2)[C@@H](C)CC)[C@@H](C)CC)C(C)C)C(=O)N[C@@H](CC(=O)O)C(=O)N[C@@H](Cc2c[nH]c3ccccc23)C(=O)N[C@@H](CCCCN)C(=O)N[C@@H](Cc2c[nH]cn2)C(=O)N[C@@H](CC(N)=O)C(=O)N[C@H](C(=O)N[C@H](C(=O)N[C@@H](CCC(N)=O)C(=O)O)[C@@H](C)O)[C@@H](C)CC)C1=O (some centres unmarked) [Example 7, [Ac-A6c^7, Cys(Psu)^34]hGIP(7-42)-OH] (Ac-[Ac6c]SDYSIAMDKIHQQDFVNWLLAQKGKKC(X1)DWKHNITQ-OH)	–	–	1.6	7.9
